Literature values in US9421268B2, “Pediatric oral liquid compositions containing nepadutant” (LABORATORI GUIDOTTI S.P.A., priority 2012, dated 2016).
Bridge positions count the residues as written; N and C are the ends. Square brackets hold non-standard residues; d marks the D form. Peptide text beside a SMILES is read from it. * marks the point of attachment. NH(β-GlcNAc) = CC(=O)N[C@@H]1[C@@H](O)[C@H](O)[C@@H](CO)O[C@H]1N*; Dap = NC[C@H](N)C(=O)O

Legend:
[1] = molecular target: T1, NK2 receptors (Rattus norvegicus, UniProt P16610); conditions: oral, new born rats, basal parameters not altered; cited from earlier work
T1 construct: from tissue; host or cells: intestine of new born rats (in vivo)
T1 sequence (P16610 1-390): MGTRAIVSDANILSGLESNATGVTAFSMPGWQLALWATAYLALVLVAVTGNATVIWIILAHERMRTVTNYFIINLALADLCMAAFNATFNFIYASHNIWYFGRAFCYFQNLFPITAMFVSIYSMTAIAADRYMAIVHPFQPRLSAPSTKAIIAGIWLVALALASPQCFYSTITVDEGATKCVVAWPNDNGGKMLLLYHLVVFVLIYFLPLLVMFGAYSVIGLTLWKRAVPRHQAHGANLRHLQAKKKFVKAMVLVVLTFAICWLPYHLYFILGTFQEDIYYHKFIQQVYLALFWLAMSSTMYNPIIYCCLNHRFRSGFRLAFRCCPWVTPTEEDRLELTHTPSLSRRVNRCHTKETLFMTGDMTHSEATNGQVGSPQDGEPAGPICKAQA

[2] = test system: hyperalgesia; conditions: new born rats; cited from earlier work
[3] = in vivo; cited from earlier work

With `CC(=O)N[C@@H]1[C@@H](O)[C@H](O)[C@@H](CO)O[C@H]1NC(=O)C[C@@H]1NC(=O)[C@H](CC(C)C)NC(=O)[C@@H]2CNC(=O)C[C@H](NC1=O)C(=O)N[C@@H](Cc1c[nH]c3ccccc13)C(=O)N[C@@H](Cc1ccccc1)C(=O)N2` [Nepadutant, [N^4-(2-acetylamino-2-deoxy-β-D-glucopyranosyl)-L-asparaginyl-L-α-triptophan-L-phenylalanyl-L-2,3-diaminopropio-nil-L-leucil]-C-4.2-N-3.5-lattame-C-1.6-N-2.1-lattame] (cyclo(D(NH(β-GlcNAc))DWF[Dap]L); lactam 2-5) as the compound, how does the “time after administration up to which the increase in intestinal transit is blocked” value [1] read?
The value was “up to 24 hours”.

What about the “efficacy in a model of hyperalgesia” value [2] of the same compound?
Its value is “effective”.

And the oral absorption [3]?
Its oral absorption is “absorbed”.
